Where two headings read alike, the source gives them in different places. Blank lines part the entries; values can stand above or below the molecule they belong to.
Assays:
Format in all cases: biochemical
[1] = target: T1, human KMO (Homo sapiens, UniProt O15229); experiment: NADPH KM determination with regeneration system, human KMO; conditions: 10 M Kynurenine (so in the source)
T1 construct: full-length human KMO was cloned as an N-terminal GST fusion; GST (N); made in house; host or cells: Sf9 insect cells, used as a membrane fraction
T1 sequence (O15229 whole entry, the tested form may be a part): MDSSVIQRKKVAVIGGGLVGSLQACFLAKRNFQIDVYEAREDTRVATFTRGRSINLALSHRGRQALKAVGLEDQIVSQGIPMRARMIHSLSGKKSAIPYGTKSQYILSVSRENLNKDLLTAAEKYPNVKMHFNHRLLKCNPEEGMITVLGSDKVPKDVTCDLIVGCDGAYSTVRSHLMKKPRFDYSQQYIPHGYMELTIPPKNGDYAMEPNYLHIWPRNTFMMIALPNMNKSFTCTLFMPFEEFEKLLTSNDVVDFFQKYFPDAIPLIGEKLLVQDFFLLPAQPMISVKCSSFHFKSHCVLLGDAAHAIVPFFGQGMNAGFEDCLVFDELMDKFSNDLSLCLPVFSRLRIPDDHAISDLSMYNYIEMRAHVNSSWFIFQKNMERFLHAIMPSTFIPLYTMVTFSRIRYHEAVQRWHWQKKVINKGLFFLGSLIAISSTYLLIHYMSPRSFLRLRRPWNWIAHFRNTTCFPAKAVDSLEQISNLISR
Description: (§1) The KM of kynurenine for human KMO and for Pf KMO were measured as described in Lowe et al.[12]. The KM of NADPH for human KMO was measured using a regeneration system as described in Lowe et al.[12], with a kynurenine concentration of 10 μM.

[2] = target: T2, Pf KMO (Pseudomonas fluorescens, UniProt Q84HF5, C252S/C461S); experiment: Rapidfire mass spectrometry IC50 assay, Pf-KMO; conditions: from inhibition curves of Fig. 3b; [Pf-KMO]=1 nM, [L-Kyn]=10 μM, [NADPH]=200 μM
T2 construct: Success was made possible by the use of a full-length P. fluorescens orthologue; made in house; host or cells: Escherichia coli BL21 (DE3)
T2 sequence (Q84HF5 whole entry C252S/C461S): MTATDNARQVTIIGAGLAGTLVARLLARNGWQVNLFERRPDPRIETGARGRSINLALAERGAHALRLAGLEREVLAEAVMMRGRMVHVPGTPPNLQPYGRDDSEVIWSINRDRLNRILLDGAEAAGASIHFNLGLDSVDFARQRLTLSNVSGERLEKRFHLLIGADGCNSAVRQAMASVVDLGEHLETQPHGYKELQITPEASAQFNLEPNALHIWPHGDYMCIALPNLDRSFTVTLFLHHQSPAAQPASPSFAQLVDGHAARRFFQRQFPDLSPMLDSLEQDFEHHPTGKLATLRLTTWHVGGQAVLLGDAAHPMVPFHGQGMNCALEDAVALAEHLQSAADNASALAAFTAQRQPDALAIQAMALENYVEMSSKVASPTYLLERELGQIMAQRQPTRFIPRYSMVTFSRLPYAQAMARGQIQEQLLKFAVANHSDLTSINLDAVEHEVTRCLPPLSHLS
Description: (§2) Inhibitor IC50 values against isolated human KMO were determined using a Rapidfire mass spectrometry assay as described in Lowe et al.[12] utilizing the Sf9 cell expressed human KMO described above. The inhibitor IC50 values against Pf-KMO were determined using an analogous Rapidfire mass spectrometry assay, utilizing the purified protein described above.

[3] = target: T1, human KMO; experiment: Association kinetics (onset of inhibition timecourses); set-up: steady-state rate Vs, onset of inhibition timecourse: unit not given here; conditions: for kobs, onset of inhibition: 200 μM NADPH, 10 μM L-Kyn; for kobs, onset of inhibition at sub-saturating NADPH: 10 nM GSK775(B2), regeneration system
Description: For the association kinetics assays, measurements were performed in a buffer of 50 mM Hepes pH 7.5, 2 mM DTT, 1 mM EDTA, 0.1 mM Chaps. Reactions were performed at ambient temperature, by addition of human KMO enzyme to a mixture of L-Kyn and NADPH containing the test inhibitor. […] Aliquots of the mixtures were quenched into 0.5% TFA in water. L-Kyn and 3-HK levels in the quenched samples were measured using the Rapidfire mass spectrometry method described in Lowe et al.[12] Calibration curves for L-Kyn and 3-HK were used to correct for the lower detection response for 3-HK. Per cent turnover and resulting concentration of 3-HK were calculated for each time point in Excel. kobs values for onset of inhibition were obtained by fitting individual timecourses to equation 1 where t=time, vs=steady-state rate, vi=initial rate and c=background[43]. vi was fixed at the uninhibited rate obtained from the slope of the timecourse in the absence of inhibitor.

[4] = target: T1, human KMO; experiment: Rapidfire mass spectrometry IC50 assay, isolated human KMO
Description: For the expression and isolation of human KMO membranes, full-length human KMO was cloned as an N-terminal GST fusion, expressed in Sf9 cells and isolated as a membrane fraction as described in Lowe et al.[12]
as §2

[5] = target: T1, human KMO; experiment: Dissociation kinetics (recovery of activity timecourses) and full kinetic analysis; set-up: steady-state rate Vs after equilibration of inhibitor binding, dissociation timecourse: unit not given here
Description: The dissociation kinetics measurements were performed in a buffer of 50 mM Hepes pH 7.5, 2 mM DTT, 1 mM EDTA, 0.1 mM Chaps. […] Aliquots of the reaction mixtures were quenched into 0.5% TFA in water. 3-HK levels in the quenched samples were measured using the Rapidfire mass spectrometry assay described in Lowe et al.[12] A calibration curve for 3-HK was used to convert the data to concentration of 3-HK at each time point. kobs values for recovery of activity were obtained by fitting individual timecourses to equation 1 with vi (initial rate) set to zero.
In this analysis, inhibitor kon was fixed at the value obtained in the association kinetic studies, and kcat and inhibitor koff were the two variable parameters.

[6] = target: T2, Pf KMO; experiment: L-Kyn KM determination, Rapidfire mass spectrometry, Pf-KMO
Description: as §1

[7] = target: T2, Pf KMO; experiment: Hydrogen peroxide formation, HRP/Amplex Red assay, Pf-KMO
Description: (§3) Measurements were performed in a buffer of 50 mM Hepes pH 7.5, 0.1 mM Chaps. A two-fold dilution series of test inhibitor and control compounds was prepared from DMSO solutions using the Hewlett-Packard D300 digital dispenser in a 384-well plate and normalized to a final DMSO concentration of 1% in the assay. 10 μl of 80 μg ml^−1 human KMO or 40 nM Pf-KMO were added. After 15 min incubation, 10 μl of a substrate/detection mix (2 U ml^−1 HRP, 20 μM Amplex Red, 40 μM NADPH) were added and the plate was read kinetically on a Tecan M1000 fluorescent plate reader with excitation wavelength 530 nm and emission wavelength 580 nm. A calibration curve comprising a two-fold dilution series of resorufin from 20 μM top concentration was included on the plate, and used to convert assay data to concentration of resorufin formed. Initial rate (μM min^−1) was extracted by linear fitting of the early region of each timecourse. Dose responses were fitted to a four parameter logistic expression where appropriate.

[8] = target: T1, human KMO; experiment: Hydrogen peroxide formation, HRP/Amplex Red assay, human KMO
Description: as §3

[9] = from inhibition curves of Fig. 3b, read-out: IC50 Human KMO

Km [1]: 1 µM
Compound: NC(=O)C1=CN([C@@H]2O[C@H](COP(=O)(O)OP(=O)(O)OC[C@H]3O[C@@H](n4cnc5c(N)ncnc54)[C@H](OP(=O)(O)O)[C@@H]3O)[C@@H](O)[C@H]2O)C=CC1 [NADPH]

Compound: Cc1ccc([C@@H](C)Oc2cc3onc(CCC(=O)O)c3cc2Cl)nn1 [GSK366]
IC50 [2]: 0.7 nM
kobs, onset of inhibition ([3]; 5 nM inhibitor): 0.031 min⁻¹
IC50 [4, 9]: 2.3 nM
mean slope of inhibition curve ([4]; human enzyme): 1.9
IC50 ([4]; human enzyme, mean of n determinations given in text, read-out: IC50 (mean potency, in vitro activity)): 2 nM

kobs, onset of inhibition at sub-saturating NADPH ([3]; 1 uM NADPH): 0.035 min⁻¹
kobs, onset of inhibition at sub-saturating NADPH ([3]; 0.3 M NADPH (so in the source)): 0.013 min⁻¹
kobs, onset of inhibition at sub-saturating NADPH ([3]; 5 M NADPH (so in the source)): 0.069 min⁻¹
kobs, onset of inhibition ([3]; 10 nM inhibitor): 0.062 min⁻¹
onset kobs, times slower than for GSK428(A2) ([3]; same concentration conditions): at least 10 times
dissociation half life of KMO-inhibitor complex ([5]; human KMO): ~2 h
Compound: C[C@@H](Oc1cc2oc(=O)n(CCC(=O)O)c2cc1Cl)c1ccccn1 [GSK775]

mean slope of inhibition curve ([4]; human enzyme): 1.9
Compound: C[C@@H](Oc1cc2onc(CCC(=O)O)c2cc1Cl)c1ccccn1 [GSK065]

Compound: Nc1ccccc1C(=O)CC(N)C(=O)O [L-Kyn, L-kynurenine]
kcat ([6]; 200 μM NADPH): 2.3 s⁻¹
Km ([6]; read-out: L-Kyn KM, 200 μM NADPH): 7 µM

Compound: Cc1cc2oc(=O)n(CCC(=O)O)c2cc1Cl [GSK428]
Generation of hydrogen peroxide [7]: stimulate peroxide (H2O2) production
IC50 [2]: 60 nM
steady-state rate Vs, onset of inhibition timecourse ([3]; 10 nM GSK428(A2), last 5 minutes of timecourse, uninhibited Vi = 0.022): 0.004
IC50 [4, 9]: 10 nM
Effect of [L-Kyn] on IC50 (mode of inhibition) ([4]; human KMO): linear relationship
Generation of hydrogen peroxide [8]: stimulate peroxide (H2O2) production
steady-state rate Vs after equilibration of inhibitor binding, dissociation timecourse ([5]; last 5 minutes of timecourse in presence of GSK428(A2)): 0.147

Compound: O=C(O)CCn1c(=O)oc2cc(OCc3ccccn3)c(Cl)cc21 [GSK891]
IC50 [2]: 4.3 nM
IC50 [4, 9]: 3.6 nM
